Results reported in the supplement of paper PMC10331698.
± gives the standard deviation of the averaged measurements.

Columns and labels:
Assay in all cases: level (log10 ratio to DMSO vehicle control); higher = higher biomarker level / cell amount than vehicle control
[1] = compound: C=CC(=O)OCCC(F)(F)C(F)(F)C(F)(F)C(F)(F)C(F)(F)C(F)(F)C(F)(F)C(F)(F)F [8:2 Fluorotelomer acrylate]; details: in DMSO
Method: (§1)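 BioMAP Diversity Plus panel of 12 human primary cell co-culture systems (3C, 4H, LPS, SAg, BT, BF4T, BE3C, CASM3C, HDF3CGF, KF3CT, MyoF, Mphg). Compounds were added 1 h before stimulation and left for 24 h (MyoF 48 h; BT 72 h for soluble read-outs or 6 d for IgG). Biomarkers were read by ELISA, cytotoxicity by SRB, PBMC viability and proliferation by Alamar Blue. Each well value was divided by the mean of 8 DMSO control wells on the same plate and log10 transformed; duplicate blinded samples were tested at 4 concentrations.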

[2] = compound: O=C(O)C(F)(F)C(F)(F)C(F)(F)C(F)(F)C(F)(F)C(F)(F)C(F)(F)F [Perfluorooctanoic acid]; details: in DMSO
Method: as §1

[3] = compound: FC(F)(I)C(F)(F)C(F)(F)C(F)(F)C(F)(F)C(F)(F)I [1,6-Diiodoperfluorohexane]; details: 6700 nM; in DMSO
Method: as §1

[4] = compound: O=S(=O)(O)CCC(F)(F)C(F)(F)C(F)(F)C(F)(F)F [4:2 Fluorotelomer sulfonic acid]; details: in DMSO
Method: as §1

[5] = compound: OCCCCC(F)(F)C(F)(F)C(F)(F)C(F)(F)F [4:4 Fluorotelomer alcohol]; details: in DMSO
Method: as §1

[6] = compound: O=C(O)C(F)(F)C(F)(F)C(F)(F)C(F)(F)C(F)(F)C(F)(F)C(F)(F)F [Ammonium perfluorooctanoate]; details: in DMSO
Method: as §1

[7] = compound: CN(Cc1cnc2nc(N)nc(N)c2n1)c1ccc(C(=O)N[C@@H](CCC(=O)O)C(=O)O)cc1 [Methotrexate]; details: in DMSO
Method: as §1

| Test System | level (log10) ([1]; 6700 nM) | level (log10) ([1]; 20000 nM) | level (log10) ([1]; 60000 nM) | level (log10) ([2]; 6700 nM) | level (log10) ([2]; 20000 nM) | level (log10) ([2]; 60000 nM) | level (log10) [3] | level (log10) ([4]; 6700 nM) | level (log10) ([4]; 20000 nM) | level (log10) ([4]; 60000 nM) | level (log10) ([5]; 6700 nM) | level (log10) ([5]; 20000 nM) | level (log10) ([5]; 60000 nM) | level (log10) ([6]; 6700 nM) | level (log10) ([6]; 20000 nM) | level (log10) ([6]; 60000 nM) | level (log10) ([7]; 1500 nM) | level (log10) ([7]; 4400 nM) | level (log10) ([7]; 13000 nM) | level (log10) ([7]; 40000 nM) |
| --- | --- | --- | --- | --- | --- | --- | --- | --- | --- | --- | --- | --- | --- | --- | --- | --- | --- | --- | --- | --- |
| lMphg:CCL3/MIP-1alpha | 0.056 ± 0.011 | 0.0485 ± 0.047 | 0.0325 ± 0.025 | 0.039 ± 0.033 | 0.0295 ± 0.066 | -0.0365 ± 0.067 | -0.016 | 0.047 ± 0.031 | 0.021 ± 0.054 | 0.0465 ± 0.042 | -0.0205 ± 0.0035 | -0.041 ± 0.021 | -0.0365 ± 0.022 | 0.003 ± 0.018 | 0.013 ± 0.024 | 0.0395 ± 0.029 | -0.0375 ± 0.016 | -0.0305 ± 0.00071 | 0.0035 ± 0.012 | 0.029 ± 0.027 |
| MyoF:Collagen III | -0.0105 ± 0.0078 | -0.019 ± 0.0085 | -0.03 ± 0.0028 | 0.007 ± 0.0028 | -0.001 ± 0.0071 | -0.039 ± 0.0099 | -0.527 | -0.013 ± 0.016 | -0.032 ± 0.0028 | -0.0045 ± 0.011 | 0.0085 ± 0.012 | 0.0015 ± 0.0078 | 0.003 ± 0.017 | 0.0015 ± 0.00071 | -0.0095 ± 0.0064 | -0.0225 ± 0.0021 | -0.011 ± 0.04 | -0.001 ± 0.065 | 0.009 ± 0.069 | 0.014 ± 0.041 |
| MyoF:Decorin | -0.0175 ± 0.0078 | -0.0185 ± 0.0078 | -0.016 ± 0.017 | 0.007 ± 0.018 | 0.02 ± 0.025 | 0.033 ± 0.055 | 0.021 | -0.0075 ± 0.0078 | -0.012 ± 0.0014 | 0.004 ± 0.0028 | 0.0115 ± 0.0035 | -0.0015 ± 0.028 | 0.033 ± 0.057 | 0.0055 ± 0.0035 | 0.0075 ± 0.00071 | -0.0355 ± 0.057 | 0.0355 ± 0.037 | 0.0025 ± 0.026 | 0.0105 ± 0.016 | 0.0275 ± 0.0078 |
| HDF3CGF:CCL2/MCP-1 | -0.03 ± 0.017 | -0.042 ± 0.031 | -0.0805 ± 0.044 | -0.0345 ± 0.044 | -0.0305 ± 0.04 | -0.0085 ± 0.057 | -0.68 | -0.008 ± 0.0071 | -0.009 ± 0.017 | 0.0105 ± 0.028 | 0.004 ± 0.0014 | 0.008 ± 0.0099 | 0.007 ± 0.016 | -0.0285 ± 0.0092 | -0.0605 ± 0.0078 | -0.068 ± 0.014 | -0.0395 ± 0.059 | -0.0325 ± 0.093 | -0.0425 ± 0.071 | -0.0435 ± 0.11 |
| 3C:CD62E/E-Selectin | -0.0165 ± 0.011 | -0.0145 ± 0.022 | 0.001 ± 0.035 | 0.001 ± 0.0042 | 0.0195 ± 0.0035 | 0.0725 ± 0.0078 | 0.005 | -0.019 ± 0.011 | -0.0035 ± 0.019 | 0.0045 ± 0.018 | -0.004 ± 0.0014 | -0.0055 ± 0.032 | 0.0105 ± 0.012 | 0.006 ± 0.011 | -0.007 ± 0.017 | 0.0085 ± 0.046 | 0.007 ± 0.0057 | -0.0145 ± 0.0035 | -0.004 ± 0.02 | 0.01 ± 0.011 |
| HDF3CGF:CD106/VCAM-1 | 0.0005 ± 0.022 | 0.011 ± 0.0071 | 0.007 ± 0.0085 | -0.0055 ± 0.005 | -0.011 ± 0.017 | -0.024 ± 0.013 | -0.335 | 0.0515 ± 0.081 | 0.0365 ± 0.094 | 0.021 ± 0.11 | -0.028 ± 0.083 | -0.0125 ± 0.04 | -0.0215 ± 0.0021 | -0.0315 ± 0.011 | -0.0065 ± 0.023 | -0.037 ± 0.0071 | 0.028 ± 0.031 | 0.01 ± 0.03 | 0.0355 ± 0.069 | -0.0225 ± 0.1 |
| KF3CT:MMP-9 | -0.042 | -0.0885 ± 0.044 | -0.132 ± 0.047 | -0.0225 ± 0.026 | 0.003 ± 0.0099 | 0.028 ± 0.011 | -0.136 | 0.0075 ± 0.012 | -0.011 ± 0.037 | 0.023 ± 0.0057 | -0.011 ± 0.013 | -0.003 ± 0.034 | 0.011 ± 0.021 | 0.0045 ± 0.018 | 0.017 ± 0.0099 | 0.0105 ± 0.023 | 0.017 ± 0.013 | -0.001 ± 0.014 | -0.0045 ± 0.04 | 0.0075 ± 0.019 |
| KF3CT:CD54/ICAM-1 | 0.003 ± 0.0042 | -0.0155 ± 0.029 | -0.0455 ± 0.019 | -0.015 ± 0.011 | -0.011 ± 0.0028 | -0.0095 ± 0.018 | -0.038 | -0.006 ± 0.0085 | -0.0125 ± 0.0092 | -0.0125 ± 0.0078 | 0.0095 ± 0.019 | -0.0025 ± 0.018 | 0.005 ± 0.024 | 0.004 ± 0.016 | -0.0165 ± 0.018 | -0.03 ± 0.023 | -0.0085 ± 0.012 | -0.011 ± 0.0014 | 0.006 ± 0.0071 | 0.007 ± 0.0042 |
| lMphg:CD69 | -0.054 ± 0.017 | -0.0565 ± 0.023 | 0.002 ± 0.079 | -0.048 ± 0.028 | -0.0655 ± 0.05 | -0.033 ± 0.11 | -0.01 | -0.023 ± 0.0028 | -0.014 ± 0.021 | -0.044 ± 0.059 | -0.0475 ± 0.04 | -0.063 ± 0.018 | -0.014 ± 0.045 | -0.0285 ± 0.018 | -0.0185 ± 0.028 | -0.0715 ± 0.0064 | -0.03 ± 0.021 | -0.0135 ± 0.036 | -0.0325 ± 0.057 | -0.034 ± 0.054 |
| HDF3CGF:CXCL8/IL-8 | -0.01 ± 0.0085 | -0.0105 ± 0.0035 | -0.0095 ± 0.026 | 0.0015 ± 0.0021 | 0.002 ± 0.0014 | 0.015 ± 0.014 | -0.276 | -0.011 ± 0.016 | -0.0025 ± 0.0021 | 0.007 ± 0.017 | -0.0065 ± 0.0035 | 0.01 ± 0.0071 | 0.01 ± 0.0014 | -0.0025 ± 0.005 | 0.002 ± 0.0042 | 0.003 | -0.0035 ± 0.011 | -0.0075 ± 0.0064 | 0.0145 ± 0.0035 | 0.004 ± 0.0085 |
| HDF3CGF:SRB | -0.02 ± 0.0071 | -0.0305 ± 0.037 | 0.003 ± 0.0014 | -0.0075 ± 0.026 | 0.0325 ± 0.043 | -0.0245 ± 0.056 | -0.644 | -0.0365 ± 0.037 | -0.0075 ± 0.033 | 0.033 ± 0.058 | 0.0015 ± 0.036 | -0.0165 ± 0.0064 | 0.006 ± 0.018 | 0.057 ± 0.055 | 0.078 ± 0.0099 | 0.0945 ± 0.047 | 0.018 ± 0.034 | -0.0135 ± 0.0035 | 0.025 ± 0.011 | 0.014 ± 0.016 |
| HDF3CGF:M-CSF | -0.0205 ± 0.011 | -0.0375 ± 0.0021 | -0.0165 ± 0.013 | -0.0205 ± 0.04 | 0.013 ± 0.0028 | 0.0235 ± 0.016 | -0.454 | -0.038 ± 0.05 | -0.062 ± 0.05 | -0.0835 ± 0.019 | -0.008 | -0.0015 ± 0.0092 | -0.014 ± 0.0014 | 0.002 ± 0.037 | 0.034 ± 0.017 | -0.049 ± 0.042 | -0.051 ± 0.076 | -0.0445 ± 0.077 | -0.033 ± 0.1 | -0.0655 ± 0.17 |
| BE3C:SRB | -0.0045 ± 0.0021 | -0.0045 ± 0.0064 | 0.006 ± 0.018 | -0.0065 ± 0.00071 | -0.0025 ± 0.0021 | -0.014 ± 0.0099 | -0.005 | 0.0015 ± 0.00071 | -0.007 ± 0.0085 | 0.0005 ± 0.0078 | -0.0065 ± 0.0035 | -0.0035 ± 0.005 | 0.0015 ± 0.016 | -0.0045 ± 0.005 | -0.003 | -0.0145 ± 0.0078 | -0.0035 ± 0.0064 | -0.009 ± 0.0014 | -0.0025 ± 0.00071 | 0.001 ± 0.014 |
